Results published in publication PMC4382154, “Screening of the Pan-African Natural Product Library Identifies Ixoratannin A-2 and Boldine as Novel HIV-1 Inhibitors” (PLoS ONE, 2015).
pEC50, pIC50: −log10 of the molar value.

Assays:
[1] = test system: HCV J4(1b)/JFH1(2a) chimera; test: HCV replication assay in Huh-7.5 cells (NS5A flow cytometry); format: cell-based; conditions: Hepatitis C virus, Huh7.5, 72 h
Experimental: The intergenotypic chimeric HCV used in this study—Bi-Gluc-J4(1b)/JFH1(2a) containing cell culture adaptive mutations in NS2 (T2996C) and NS3 (A4827T)—was previously described and subsequently modified to express Gaussia luciferase in the first cistron. HCV stocks used for infection were generated by electroporation of in vitro transcribed RNA into Huh-7.5.1 cells and pooling of supernatants harvested between 60–96 hr post-electroporation. HCV infectivity was determined by limiting dilution assay as previously described.
HCV cell culture was performed as described previously. Briefly, 4*10^4 Huh-7.5 cells were seeded into 24-well plates and incubated at 37°C and 5% CO2 overnight. Cells were then infected with HCV (multiplicity of infection = 0.3) for 6 hours, followed by removal of HCV and incubation with fresh medium containing compounds at stated concentrations. Cultures were then incubated for 72 hours, with no more than 0.1% DMSO present in culture medium. Cells were then trypsinized, resuspended in culture medium, and stained with the 9E10 alexa-fluor-conjugated antibody to NS5A [27]. Cells were fixed and analyzed for NS5A fluorescence by flow cytometry, and data were analyzed using FlowJo software. […] For each culture, NS5A fluorescence was determined as the percent gated cells relative to percent gated cells in infected cultures plus 0.1% DMSO. All experiments were performed in at least duplicate in at least two independent experiments.
We therefore assessed the effects of ixoratannin A-2, boldine, and BIT-225 on replication of HCV, which also encodes a viral ion channel and protease. Using an established cell culture system, Huh-7.5 cells were infected with an intergenotypic chimera between the J4 (genotype 1b) and JFH1 (genotype 2a) strain of HCV for 6 hours, followed by incubation with fresh medium containing compounds at defined concentrations. Infected cells were then incubated for an additional 72 hours. NS5A expression, a marker of HCV infection, was then detected by flow cytometry.

hERG potassium channel = test system: hERG potassium channel; parameters: method as in PMID 24963621; conditions: two electrode voltage clamp, Xenopus oocytes; read-out: IC50 hERG potassium channel currents; cited from earlier work
[2] = read-out: inhibition of HCV replication

Row | SMILES | inhibition at 50 µM [1, 2] [%] | pIC50 (hERG potassium channel) | pEC50 ([1]; read-out: EC50 HCV replication) | inhibition at 30 µM [1, 2] [%]
1 | COc1cc2c(cc1O)C[C@H]1c3c(cc(O)c(OC)c3-2)CCN1C [boldine] | 36 | 4.71 |  | 
2 | Oc1cc(O)c2c(c1)OC1(c3ccc(O)c(O)c3)Oc3c4c(c5c(c3C2C1O)OC1(c2ccc(O)c(O)c2)Oc2cc(O)cc(O)c2C5C1O)OC(c1ccc(O)c(O)c1)C(O)C4 (stereo not shown) [ixoratannin A-2] |  |  | 4.64 | > 50
